Key:
[1] = target: T1, Prostaglandin D2 receptor (Homo sapiens, UniProt Q13258); assay: In vitro inhibition of [3H]- PGD-2 radioligand binding to prostaglandin D2 receptor on human platelet membrane
T1 sequence (Q13258 whole entry): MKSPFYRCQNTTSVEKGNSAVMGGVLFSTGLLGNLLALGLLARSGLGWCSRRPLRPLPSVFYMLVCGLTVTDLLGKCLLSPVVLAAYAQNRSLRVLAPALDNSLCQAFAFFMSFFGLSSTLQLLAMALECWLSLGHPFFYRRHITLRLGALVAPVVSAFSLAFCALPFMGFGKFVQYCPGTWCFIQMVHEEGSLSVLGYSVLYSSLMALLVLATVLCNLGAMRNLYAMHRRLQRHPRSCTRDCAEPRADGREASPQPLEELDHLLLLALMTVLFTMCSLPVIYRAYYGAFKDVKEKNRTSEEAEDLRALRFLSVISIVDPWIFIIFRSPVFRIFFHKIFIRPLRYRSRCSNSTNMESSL

[2] = target: T1, Prostaglandin D2 receptor; assay: In vitro inhibition of cAMP formation evoked by prostaglandin D2 receptor in human platelets; type: functional
Cavia porcellus [3] = assay: In vivo inhibition of antigen induced increase in intranasal pressure in actively sensitized guinea pig after dose of 10 mg/kg; type: functional; conditions: for inhibition in vivo at 10 mg/kg: Cavia porcellus
Cavia porcellus [4] = assay: Inhibition of increase in specific airway resistance by antigen inhalation in conscious guinea pig at a dose of 10 mg/kg administered perorally 1 hr before challenge in asthma model; type: functional; conditions: route oral
Cavia porcellus [5] = assay: In vivo inhibition of antigen induced increase in intranasal pressure in actively sensitized guinea pig after an intravenous dose of 1 mg/kg; type: functional

Row | SMILES | IC50 [1] | IC50 [2] | also measured
1 | CS(=O)(=O)NC(=O)CCC/C=C\C[C@@H]1[C@H]2CC[C@H](C2)[C@H]1NS(=O)(=O)c1ccc2oc3ccccc3c2c1 | 0.042 µM | 0.032 µM | 
2 | O=C(O)CCC/C=C\C[C@@H]1[C@H]2CC[C@H](C2)[C@H]1NS(=O)(=O)c1ccc2oc3ccccc3c2c1 |  |  | inhibition in vivo at 10 mg/kg (Cavia porcellus [3]): 75%
3 | CC(C)(C)c1ccc(S(=O)(=O)N[C@@H]2[C@@H]3CC[C@@H](C3)[C@H]2C/C=C\CCCC(=O)O)cc1 | > 10 µM | 0.72 µM | 
4 | COc1cc2c(cc1S(=O)(=O)N[C@@H]1[C@@H]3CC[C@@H](C3)[C@H]1C/C=C\CCCC(=O)O)oc1ccccc12 | 0.024 µM | 0.052 µM | inhibition in vivo at 10 mg/kg (Cavia porcellus [4]): 42%; Inhibition (Cavia porcellus [3]; 10 mg/kg): 82%; inhibition in vivo at 10 mg/kg (Cavia porcellus [3]): 81%
5 | COc1cc2c(cc1S(=O)(=O)N[C@@H]1[C@@H]3CC[C@@H](C3)[C@H]1C/C=C\CCC(C)(C)C(=O)O)oc1ccccc12 | 0.057 µM | 0.32 µM | 
6 | O=C(O)CCC/C=C\C[C@@H]1[C@H]2CC[C@H](C2)[C@H]1NS(=O)(=O)c1ccc(-c2ccccc2)s1 | 0.58 µM | 0.22 µM | 
7 | O=C(O)CCC/C=C\C[C@@H]1[C@H]2CC[C@H](C2)[C@H]1NS(=O)(=O)c1ccc2oc3ccc(O)cc3c2c1 | 0.2 µM | 0.25 µM | 
8 | O=C(O)CCC/C=C\C[C@@H]1[C@H]2CC[C@H](C2)[C@H]1NS(=O)(=O)c1ccc(-c2cccs2)s1 | 0.41 µM | 0.2 µM | 
9 | CC(C)(CC/C=C\C[C@@H]1[C@H]2CC[C@H](C2)[C@H]1NS(=O)(=O)c1ccc2oc3ccccc3c2c1)C(=O)O | 0.18 µM | 0.32 µM | 
10 | O=C(O)CCC/C=C\C[C@@H]1[C@H]2CC[C@H](C2)[C@H]1NS(=O)(=O)c1ccc(-c2ccc(C(F)(F)F)cc2)cc1 | 0.66 µM | 0.35 µM | 
11 | O=C(O)CCCCC(=O)C[C@@H]1[C@H]2CC[C@H](C2)[C@H]1NS(=O)(=O)c1ccc2oc3ccccc3c2c1 | 0.68 µM | 0.019 µM | 
12 | COc1cc2c(cc1S(=O)(=O)N[C@@H]1[C@@H]3CC[C@@H](C3)[C@H]1CC(=O)CCCCC(=O)O)oc1ccccc12 | 0.96 µM | 0.033 µM | 
13 | O=C(O)CCC/C=C\C[C@@H]1[C@H]2CC[C@H](C2)[C@H]1NS(=O)(=O)c1ccc2oc3cc([N+](=O)[O-])ccc3c2c1 | 0.55 µM | 0.057 µM | 
14 | COc1ccc2oc3ccc(S(=O)(=O)N[C@@H]4[C@@H]5CC[C@@H](C5)[C@H]4C/C=C\CCCC(=O)O)cc3c2c1 | 0.034 µM | 0.33 µM | 
15 | O=C(O)CCCCCC[C@@H]1[C@H]2CC[C@H](C2)[C@H]1NS(=O)(=O)c1ccc2oc3ccccc3c2c1 | 0.12 µM | 0.43 µM | 
16 | O=C(O)CCC/C=C\C[C@@H]1[C@H]2CC[C@H](C2)[C@H]1NS(=O)(=O)c1cc2oc3ccccc3c2cc1O | 0.19 µM | 0.18 µM | 
17 | COc1ccc(S(=O)(=O)N[C@@H]2[C@@H]3CC[C@@H](C3)[C@H]2C/C=C\CCCC(=O)O)cc1 | > 10 µM | 0.39 µM | 
18 | O=C(O)CCC/C=C\C[C@@H]1[C@H]2CC[C@H](C2)[C@H]1NS(=O)(=O)c1ccccc1Br | 5.3 µM | 0.34 µM | 
19 | CCOc1cc2c(cc1S(=O)(=O)N[C@@H]1[C@@H]3CC[C@@H](C3)[C@H]1C/C=C\CCCC(=O)O)oc1ccccc12 | 0.032 µM | 0.034 µM | inhibition in vivo at 10 mg/kg (Cavia porcellus [3]): 53%
20 | O=C(O)CCC/C=C\C[C@@H]1[C@H]2CC[C@H](C2)[C@H]1NS(=O)(=O)c1ccc(/C=C/c2ccccc2)s1 | 0.09 µM | 0.1 µM | 
21 | Cc1cc(C)c(S(=O)(=O)N[C@@H]2[C@@H]3CC[C@@H](C3)[C@H]2C/C=C\CCCC(=O)O)c(C)c1 | 5.4 µM | 0.13 µM | 
22 | O=C(O)CCC/C=C\C[C@@H]1[C@H]2CC[C@H](C2)[C@H]1NS(=O)(=O)Cc1ccc(-c2ccccc2)cc1 | 8.6 µM | > 1 µM | 
23 | COc1ccc(S(=O)(=O)N[C@@H]2[C@@H]3CC[C@@H](C3)[C@H]2C/C=C\CCCC(=O)O)cc1[N+](=O)[O-] | 5.4 µM | 0.28 µM | 
24 | CN(C)c1ccc2c(c1)oc1ccc(S(=O)(=O)N[C@@H]3[C@@H]4CC[C@@H](C4)[C@H]3C/C=C\CCCC(=O)O)cc12 | 0.036 µM | 0.17 µM | 
25 | O=C(O)CCC/C=C\C[C@@H]1[C@H]2CC[C@H](C2)[C@H]1NS(=O)(=O)c1ccccc1-c1ccccc1 | 8.6 µM |  | 

More lines, main results first:

Row | IC50 [1] | IC50 [2] | SMILES | also measured
26 | 0.2 µM | 0.18 µM | O=C(O)CCC/C=C\C[C@@H]1[C@H]2CC[C@H](C2)[C@H]1NS(=O)(=O)c1ccc(/C=C\c2ccccc2)cc1 | 
27 |  | > 1 µM | O=C(O)CCC/C=C\C[C@@H]1[C@H]2CC[C@H](C2)[C@H]1NS(=O)(=O)c1ccc2c(c1)Cc1ccccc1-2 | 
28 | 1.1 µM | 0.086 µM | O=C(O)CCC/C=C\C[C@@H]1[C@H]2CC[C@H](C2)[C@H]1NS(=O)(=O)c1ccc(C(=O)Nc2ccccc2)cc1 | 
29 | 0.19 µM | 0.21 µM | O=C(O)CCC/C=C\C[C@@H]1[C@H]2CC[C@H](C2)[C@H]1NS(=O)(=O)c1ccc(-c2cc3ccccc3[nH]2)cc1 | 
30 | 0.55 µM | 0.26 µM | O=C(O)CCC/C=C\C[C@@H]1[C@H]2CC[C@H](C2)[C@H]1NS(=O)(=O)c1ccc(CCc2ccccc2)cc1 | 
31 | 0.015 µM | 0.045 µM | COc1ccc(-c2cc3ccc(S(=O)(=O)N[C@@H]4[C@@H]5CC[C@@H](C5)[C@H]4C/C=C\CCCC(=O)O)cc3[nH]2)cc1 | inhibition in vivo at 1 mg/kg (Cavia porcellus [5]): 40%
32 |  | 0.071 µM | O=C(O)CCC/C=C\C[C@@H]1[C@H]2CC[C@H](C2)[C@H]1NS(=O)(=O)c1ccc2cc(-c3ccccc3)[nH]c2c1 | 
33 | 0.022 µM | 0.022 µM | O=C(O)CCC/C=C\C[C@@H]1[C@H]2CC[C@H](C2)[C@H]1NS(=O)(=O)c1ccc2[nH]c3ccccc3c2c1 | inhibition in vivo at 1 mg/kg (Cavia porcellus [5]): -9%
34 | 5.2 µM | 0.65 µM | O=C(O)CCC/C=C\C[C@@H]1[C@H]2CC[C@H](C2)[C@H]1NS(=O)(=O)c1ccc(Cc2ccccc2)cc1 | 
35 | 0.064 µM | 0.18 µM | O=C(O)CCC/C=C\C[C@@H]1[C@H]2CC[C@H](C2)[C@H]1NS(=O)(=O)c1ccc2sc3ccccc3c2c1 | inhibition in vivo at 1 mg/kg (Cavia porcellus [5]): 31%
36 | 0.062 µM | 0.38 µM | O=C(O)CCC/C=C\C[C@@H]1[C@H]2CC[C@H](C2)[C@H]1NS(=O)(=O)c1ccc(-c2nnnn2-c2ccccc2)cc1 | 
37 | 0.45 µM | 0.2 µM | COc1ccc(-c2ccc(S(=O)(=O)N[C@@H]3[C@@H]4CC[C@@H](C4)[C@H]3C/C=C\CCCC(=O)O)cc2)cc1 | 
38 | 0.025 µM |  | O=C(O)CCC/C=C\C[C@@H]1[C@H]2CC[C@H](C2)[C@H]1NS(=O)(=O)c1ccc(/N=N/c2ccccc2)cc1 | 
39 | 0.018 µM | 0.025 µM | O=C(O)CCC/C=C\C[C@@H]1[C@H]2CC[C@H](C2)[C@H]1NS(=O)(=O)c1ccc2cc(-c3ccc(O)cc3)[nH]c2c1 | inhibition in vivo at 1 mg/kg (Cavia porcellus [5]): 42%
40 | 0.68 µM | 0.57 µM | O=C(O)CCC/C=C\C[C@@H]1[C@H]2CC[C@H](C2)[C@H]1NS(=O)(=O)c1ccc(Oc2ccccc2)cc1 | 
41 | 0.38 µM | 0.19 µM | Cn1c(-c2ccccc2)cc2ccc(S(=O)(=O)N[C@@H]3[C@@H]4CC[C@@H](C4)[C@H]3C/C=C\CCCC(=O)O)cc21 | 
42 | 0.022 µM | 0.16 µM | O=C(O)CCC/C=C\C[C@@H]1[C@H]2CC[C@H](C2)[C@H]1NS(=O)(=O)c1ccc2c(c1)oc1ccccc12 | 
43 | 6 µM | 0.12 µM | O=C(O)CCC/C=C\C[C@@H]1[C@H]2CC[C@H](C2)[C@H]1NS(=O)(=O)c1ccc(NC(=O)c2ccccc2)cc1 | 
44 | 0.0085 µM | 0.21 µM | O=C(O)CCC/C=C\C[C@@H]1[C@H]2CC[C@H](C2)[C@H]1NS(=O)(=O)c1ccc(C#Cc2ccccc2)cc1 | 
45 | 0.1 µM | 0.18 µM | O=C(O)CCC/C=C\C[C@@H]1[C@H]2CC[C@H](C2)[C@H]1NS(=O)(=O)c1ccc(/C=C/c2ccccc2)cc1 | 
46 | 0.33 µM | 0.16 µM | O=C(O)CCC/C=C\C[C@@H]1[C@H]2CC[C@H](C2)[C@H]1NS(=O)(=O)c1ccc(Nc2ccccc2)cc1 | 
47 | 0.67 µM | 0.28 µM | O=C(O)CCC/C=C\C[C@@H]1[C@H]2CC[C@H](C2)[C@H]1NS(=O)(=O)c1cccc(-c2ccccc2)c1 | 
